Results published in patent publication US20250160350A1, “BIOACTIVE MOLECULES IN YOGURT” (Phytoquest Limited, priority 2022, published 2025).
Structures can show the parent of a compound that is named as a salt. Where two headings read alike, the source gives them in different places.

Experiments:
[1] = test system: GCase; settings: literature (Ambrosi et al. 2015); cited from earlier work
[2] = test system: GCase; settings: PD patients with and without GBA1 mutation; cited from earlier work
[3] = target: T1, human recombinant β-glucocerebrosidase (Cerezyme) (Homo sapiens, UniProt P04062, R534H); test: β-glucocerebrosidase assay (Cerezyme/imiglucerase, PNP β-glucopyranoside, pH 5.9); format: biochemical; settings: for % inhibition Cerezyme (β-glucocerebrosidase) / inhibition at 5000 µg/mL: Conc 5 mg/ml; for effect on β-glucocerebrosidase activity, in words: in vitro; for % inhibition glucocerebrosidase (GC) Genzyme: 0.8 mM; for inhibition at 10000 µg/mL: Conc 10 mg/ml
T1 construct: purchased Genzyme, Europe
T1 sequence (P04062 40-536 R534H): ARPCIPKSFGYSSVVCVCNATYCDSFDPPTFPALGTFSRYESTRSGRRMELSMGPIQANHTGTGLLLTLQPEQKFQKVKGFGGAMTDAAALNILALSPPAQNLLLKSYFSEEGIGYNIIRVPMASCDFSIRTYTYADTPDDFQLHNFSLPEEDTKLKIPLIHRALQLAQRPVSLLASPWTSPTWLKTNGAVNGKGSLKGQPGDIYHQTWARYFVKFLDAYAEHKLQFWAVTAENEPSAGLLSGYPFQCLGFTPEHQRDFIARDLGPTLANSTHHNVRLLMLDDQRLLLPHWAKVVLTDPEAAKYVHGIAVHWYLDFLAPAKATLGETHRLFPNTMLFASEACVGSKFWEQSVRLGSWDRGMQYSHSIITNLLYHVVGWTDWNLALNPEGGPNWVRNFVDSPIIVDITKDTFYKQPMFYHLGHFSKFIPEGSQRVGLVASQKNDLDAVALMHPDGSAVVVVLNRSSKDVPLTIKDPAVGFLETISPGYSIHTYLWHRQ
Method: An exemplary assay is-uses human recombinant imiglucerase (obtained from Genzyme, Europe) and is conducted at 27° C. in 0.1 M citric acid/0.2 M disodium hydrogen phosphate buffer at pH 5.9. The incubation mixture consists of 10 μL of enzyme solution, 10 μL of aqueous solution of test material (e.g., yogurt, yogurt extract or isolated cyclic guanidine compound) at the required concentration and 50 μL of 5 mM para-nitrophenyl (PNP) B glucopyranoside (Sigma-Aldrich) made up in buffer at pH 5.9. The reactions are stopped by addition of 70 μL 0.4 M glycine (pH 10.4) during the exponential phase of the reaction, which is previously determined using uninhibited assays in which water replaces inhibitor. Final absorbances were read at 405 nm using a Versamax microplate reader (Molecular Devices). Assays are carried out in triplicate, and the values given are means of the three replicates per assay. A negative value indicates enzyme activation.
Glycosidase assays. Most enzymes and para-nitrophenyl substrates were purchased from Sigma with the exception of human recombinant β-glucocerebrosidase (Cerezyme) obtained from Genzyme, Europe. Pure iminosugars which inhibit β-glucosidases (DMDP and calystegine B2) were used as controls. Yogurt samples were tested at 1 mg/ml. Enzymes were assayed at 27° C. in 0.1 M citric acid/0.2 M disodium hydrogen phosphate buffers at the optimum pH for the enzyme (pH 5.9 for Cerezyme). The incubation mixture consisted of 10 μL enzyme solution, 10 μL of 1 mg/mL aqueous inhibitor solution and 50 μL of the appropriate 5 mM para-nitrophenyl substrate made up in buffer at the optimum pH for the enzyme. Cerezyme was assayed against para-nitrophenyl (PNP) β-glucopyranoside. […] Final absorbances were read at 405 nm using a Versamax microplate reader (Molecular Devices). Assays were performed in triplicate and the mean percentage inhibitions used. A negative value indicates enzyme activation.
Glycosidase Assays. β-glucocerebrosidase enzyme (Human recombinant imiglucerase, obtained from Genzyme, Europe) were carried at 27° C. in 0.1 M citric acid/0.2 M disodium hydrogen phosphate buffer at pH 5.9. The incubation mixture consisted of 10 μL of enzyme solution, 10 μL of aqueous solution of extract or compound at the required concentration and 50 μL of 5 mM para-nitrophenyl (PNP) β-glucopyranoside (Sigma-Aldrich) made up in buffer at pH 5.9. […] Final absorbances were read at 405 nm using a Versamax microplate reader (Molecular Devices). Assays were carried out in triplicate and the values given are means. Results are shown as % inhibition where a negative value indicates enzyme activation.
β-glucocerebrosidase enzyme (Human recombinant imiglucerase, obtained from Genzyme, Europe) were carried at 27° C. in 0.1 M citric acid/0.2 M disodium hydrogen phosphate buffer at pH 5.9. […] Final absorbances were read at 405 nm using a Versamax microplate reader (Molecular Devices). Assays were carried out in triplicate, and the values given are means of the three replicates per assay. A negative value indicates enzyme activation.

[4] = test system: α-D-glucosidase Yeast; test: Glycosidase assay, α-D-glucosidase Yeast; format: biochemical; settings: negative value = activation
Method: (§1) Glycosidase assays. Most enzymes and para-nitrophenyl substrates were purchased from Sigma with the exception of human recombinant β-glucocerebrosidase (Cerezyme) obtained from Genzyme, Europe. Pure iminosugars which inhibit β-glucosidases (DMDP and calystegine B2) were used as controls. Yogurt samples were tested at 1 mg/ml. Enzymes were assayed at 27° C. in 0.1 M citric acid/0.2 M disodium hydrogen phosphate buffers at the optimum pH for the enzyme (pH 5.9 for Cerezyme). The incubation mixture consisted of 10 μL enzyme solution, 10 μL of 1 mg/mL aqueous inhibitor solution and 50 μL of the appropriate 5 mM para-nitrophenyl substrate made up in buffer at the optimum pH for the enzyme. Cerezyme was assayed against para-nitrophenyl (PNP) β-glucopyranoside. The reactions were stopped by addition of 70 μL 0.4 M glycine (pH 10.4) during the exponential phase of the reaction, which had been determined at the beginning using uninhibited assays in which water replaced inhibitor. Final absorbances were read at 405 nm using a Versamax microplate reader (Molecular Devices). Assays were performed in triplicate and the mean percentage inhibitions used. A negative value indicates enzyme activation.

[5] = test system: α-D-glucosidase Bacillus; test: Glycosidase assay, α-D-glucosidase Bacillus; format: biochemical; settings: 0.8 mM; negative value = activation
Method: as §1

[6] = test system: β-D-glucosidase almond; test: Glycosidase assay, β-D-glucosidase almond; format: biochemical; settings: negative value = activation
Method: as §1

[7] = target: T2, α-D-galactosidase Green coffee (Coffea arabica, UniProt Q42656); test: Glycosidase assay, α-D-galactosidase Green coffee; format: biochemical; settings: 0.8 mM; negative value = activation
T2 construct: purchased Sigma
Method: as §1

[8] = test system: β-D-galactosidase bovine liver; test: Glycosidase assay, β-D-galactosidase bovine liver; format: biochemical; settings: 0.8 mM; negative value = activation
Method: as §1

[9] = target: T3, α-D-mannosidase Jack bean (Canavalia ensiformis, UniProt C0HJB3); test: Glycosidase assay, α-D-mannosidase Jack bean; format: biochemical; settings: 0.8 mM; negative value = activation
T3 construct: purchased Sigma
T3 sequence (C0HJB3 1-981): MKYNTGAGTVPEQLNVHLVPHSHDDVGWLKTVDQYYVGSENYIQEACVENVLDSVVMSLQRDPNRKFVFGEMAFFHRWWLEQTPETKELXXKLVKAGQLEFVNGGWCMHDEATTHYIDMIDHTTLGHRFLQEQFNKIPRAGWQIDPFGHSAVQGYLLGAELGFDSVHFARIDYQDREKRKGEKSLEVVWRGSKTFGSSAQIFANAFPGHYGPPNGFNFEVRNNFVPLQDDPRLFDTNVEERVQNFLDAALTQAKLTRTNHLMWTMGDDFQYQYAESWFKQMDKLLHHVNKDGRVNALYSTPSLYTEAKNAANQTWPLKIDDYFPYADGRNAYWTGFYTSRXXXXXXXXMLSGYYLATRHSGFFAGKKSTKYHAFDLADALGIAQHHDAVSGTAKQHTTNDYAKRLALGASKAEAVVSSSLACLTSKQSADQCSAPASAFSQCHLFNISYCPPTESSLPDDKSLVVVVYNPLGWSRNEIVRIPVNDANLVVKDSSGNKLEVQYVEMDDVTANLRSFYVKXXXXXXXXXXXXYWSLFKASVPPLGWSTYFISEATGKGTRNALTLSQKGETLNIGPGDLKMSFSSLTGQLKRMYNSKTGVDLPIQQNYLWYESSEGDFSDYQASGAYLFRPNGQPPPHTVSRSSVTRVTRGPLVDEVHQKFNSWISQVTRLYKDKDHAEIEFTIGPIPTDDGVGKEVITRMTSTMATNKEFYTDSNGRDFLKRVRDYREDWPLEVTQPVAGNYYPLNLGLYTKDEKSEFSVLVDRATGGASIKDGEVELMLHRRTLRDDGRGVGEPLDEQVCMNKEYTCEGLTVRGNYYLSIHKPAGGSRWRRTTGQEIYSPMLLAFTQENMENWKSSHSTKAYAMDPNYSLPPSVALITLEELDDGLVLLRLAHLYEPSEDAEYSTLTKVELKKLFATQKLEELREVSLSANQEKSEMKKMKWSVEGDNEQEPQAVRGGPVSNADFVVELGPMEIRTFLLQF
Method: as §1

[10] = test system: β-D-mannosidase C. fimi; test: Glycosidase assay, β-D-mannosidase C. fimi; format: biochemical; settings: 0.8 mM; negative value = activation
Method: as §1

[11] = test system: N-acetyl-β-D gluc Bovine kidney; test: Glycosidase assay, N-acetyl-β-D gluc Bovine kidney; format: biochemical; settings: negative value = activation; for % inhibition N-acetyl-β-D gluc Bovine kidney: 0.8 mM
Method: as §1

[12] = test system: N-acetyl-β-D-gluc Jack bean; test: Glycosidase assay, N-acetyl-β-D-gluc Jack bean; format: biochemical; settings: 0.8 mM; negative value = activation
Method: as §1

[13] = test system: α-D-glucosidase rat intestine; test: Glycosidase assay, α-D-glucosidase rat intestine; format: biochemical; settings: 0.8 mM; negative value = activation
Method: as §1

[14] = test system: GCase; settings: in vitro and in mice, tissue-specific (Sun et al. 2012); cited from earlier work
[15] = pH 5.9, negative value = activation

T2 sequence (Q42656 16-378): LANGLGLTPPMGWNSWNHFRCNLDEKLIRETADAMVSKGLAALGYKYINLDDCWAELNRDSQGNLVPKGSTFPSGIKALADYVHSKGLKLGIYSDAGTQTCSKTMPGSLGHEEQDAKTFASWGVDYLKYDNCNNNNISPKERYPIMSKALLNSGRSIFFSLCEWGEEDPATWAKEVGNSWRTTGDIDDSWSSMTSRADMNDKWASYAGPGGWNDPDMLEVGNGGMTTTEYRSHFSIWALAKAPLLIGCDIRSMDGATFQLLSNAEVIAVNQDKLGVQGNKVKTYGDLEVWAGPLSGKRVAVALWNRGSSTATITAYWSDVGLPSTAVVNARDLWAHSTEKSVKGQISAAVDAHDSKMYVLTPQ

Compound: Nc1c(Br)cc(Br)cc1CN[C@H]1CC[C@H](O)CC1 [Ambroxol hydrochloride]
- GCase activity [1]: enhance GCase activity
- α-syn clearance [1]: increase α-syn clearance
- GCase activity in patients [2]: increased the GCase activity

Compound: O=C(O)c1ccc(=O)[nH]c1 [6-OH-nicotinic acid]
- % inhibition Cerezyme (β-glucocerebrosidase) [3, 15]: −1.4%

Compound: O=C(/C=C/c1ccc(O)c(O)c1)O[C@@H]1C[C@](O)(C(=O)O)C[C@@H](O)[C@H]1O [chlorogenic acid]
- inhibition at 5000 µg/mL [3, 15]: 57.1%
- effect on β-glucocerebrosidase activity, in words [3]: inhibited the enzyme

Compound: Cn1cc(C(=O)O)ccc1=O [6-OH-trigonelline]
- % inhibition Cerezyme (β-glucocerebrosidase) [3, 15]: 8.6%

Compound: OC[C@H]1N[C@H](CO)[C@@H](O)[C@@H]1O [DMDP]
- % inhibition α-D-glucosidase Yeast ([4]; 0.8 mM): 100%
- % inhibition α-D-glucosidase Bacillus [5]: 93%
- % inhibition β-D-glucosidase almond ([6]; 0.8 mM): 97%
- % inhibition α-D-galactosidase Green coffee [7]: 7%
- % inhibition β-D-galactosidase bovine liver [8]: 99%
- % inhibition glucocerebrosidase (GC) Genzyme [3, 15]: 44%
- % inhibition α-D-mannosidase Jack bean [9]: 3%
- % inhibition β-D-mannosidase C. fimi [10]: 93%
- % inhibition N-acetyl-β-D gluc Bovine kidney [11]: −7%
- % inhibition N-acetyl-β-D-gluc Jack bean [12]: −7%
- % inhibition α-D-glucosidase rat intestine [13]: 77%

Compound: OC[C@H]1CNC[C@@H](O)[C@@H]1O [isofagomine]
- GCase activity [14]: increase GCase activity in vitro and in mice

Compound: O=C(O)c1cccnc1 [nicotinic acid]
- inhibition at 5000 µg/mL [3, 15]: -12.7%

Compound: O=c1c(O)c(-c2ccc(O)c(O)c2)oc2cc(O)cc(O)c12 [quercetin]
- inhibition at 5000 µg/mL [3, 15]: 39.4%
- effect on β-glucocerebrosidase activity, in words [3]: inhibited the enzyme

Compound: C[N+](C)(C)CC(=O)O [betaine]
- inhibition at 10000 µg/mL [3, 15]: 0.1%

Compound: C[n+]1cccc(C(=O)[O-])c1 [trigonelline]
- inhibition at 1000 µg/mL ([3]; Conc 1 mg/ml, pH 5.9, negative value = activation): 3.1%
- inhibition at 5000 µg/mL [3, 15]: -12.6%

Compound: Nc1cc[nH]c(=O)n1 [cytosine]
- inhibition at 10000 µg/mL [3, 15]: -1.6%

Compound: O=c1cc[nH]c(=O)[nH]1 [uracil]
- inhibition at 5000 µg/mL [3, 15]: 4.5%

Compound: O[C@@H]1[C@@H](O)[C@H](O)[C@]2(O)CC[C@H]1N2 [Calystegine B2]
- % inhibition α-D-glucosidase Yeast ([4]; 0.8 mM): 18%
- % inhibition α-D-glucosidase Bacillus [5]: −5%
- % inhibition β-D-glucosidase almond ([6]; 0.8 mM): 96%
- % inhibition α-D-galactosidase Green coffee [7]: 99%
- % inhibition β-D-galactosidase bovine liver [8]: 44%
- % inhibition glucocerebrosidase (GC) Genzyme [3, 15]: 100%
- % inhibition α-D-mannosidase Jack bean [9]: 8%
- % inhibition β-D-mannosidase C. fimi [10]: −5%
- % inhibition N-acetyl-β-D gluc Bovine kidney [11]: 0%
- % inhibition N-acetyl-β-D-gluc Jack bean [12]: 0%
- % inhibition α-D-glucosidase rat intestine [13]: 22%

Compound: CN1C(=N)NC[C@H]1C(=O)O [Compound 1, (S)-2-imino-3-methylimidazolidine-4-carboxylic acid]
- % inhibition α-D-glucosidase Yeast ([4]; 8 mM): 44%
- % inhibition β-D-glucosidase almond ([6]; 8 mM): 20%
- effect on β-glucocerebrosidase activity, in words [3]: strong promotion equalling that of the yogurt purified compound
- effect on β-glucocerebrosidase activity, in words ([3]; listed as (S)-2-imino-3-methylimidazolidine-4-carboxylic acid): effective at promoting the enzyme activity in vitro
- % inhibition N-acetyl-β-D-gluc Bovine kidney ([11]; 8 mM): 34%

Compound: NC(=O)c1cccnc1 [nicotinamide]
- inhibition at 5000 µg/mL [3, 15]: -11.3%

Compound: Nc1ncnc2nc[nH]c12 [adenine]
- inhibition at 10000 µg/mL [3, 15]: -22%
- effect on β-glucocerebrosidase activity, in words [3]: some promotion activity but weaker than that seen with the yogurts

Compound: O=C(O)/C=C/c1ccc(O)c(O)c1 [caffeic acid]
- inhibition at 5000 µg/mL [3, 15]: -1.8%
